Columns and labels:
HepG2 cells [1] = experiment: Apoptosis induction (FITC Annexin V / 7-AAD flow cytometry)
Method: (§5) The exemplary effects of the combined treatment of TTFields and sorafenib was tested using the following human HCC cell lines: HepG2 (ATCC) and Huh-7D12 (Sigma). All cells were grown in a humidified incubator supplied with 5% CO2. HepG2 were maintained in EMEM, supplemented with 10% FBS, 2 mmol/L glutamine, Pen-Strep solution (100 units/ml Penicillin and 0.1 mg/ml Streptomycin), 1 mmol/L sodium pyruvate and 1% NEAA. […] Sorafenib was obtained from BioVision, USA.
(§6) For apoptosis analysis, cells were removed with Trypsin immediately after 72 h treatment, washed twice with ice-cold PBS with 1% FBS, and stained using FITC Annexin V Apoptosis Detection Kit and 7-AAD (BioLegend, USA). Early, late, and total apoptosis was then quantified using the EC800 flow cytometer (Sony Biotechnology, Japan).

[2] = test system: N1S1 Hepatocellular Carcinoma; experiment: N1S1 orthotopic HCC rat model, tumor volume by MRI; assay type: in vivo; details: Sprague Dawley rats, N1S1 liver tumor, sorafenib 10 mg/kg/day IP + TTFields 150 kHz 2.86 V/cm
Method: In this experiment, the volume of the tumor was measured using MRI on day 6 (one day before treatment start) and day 14 (one day after the end of treatment); and each data point in FIG. 7 represents the volume of the tumor on day 14 divided by the volume of the tumor on day 6. Thus, numbers greater than 1 represent growth in the tumor volume, and numbers smaller than 1 represent a tumor that has shrunk between day 6 and day 14.
In the first part, the efficacy of different Sorafenib concentrations in combination with TTFields was tested, and one concentration was used during future experiments (10 mg/kg/day over 5 days). In the following experiments, the combined treatment of a single Sorafenib concentration and TTFields (150 kHz) was tested.
All animals were injected orthotopically to the left lobe of the liver with N1S1 Hepatocellular Carcinoma model (Garin E. et al., 2005) by day 0 as described in SOP-BI-036. The peritoneum was closed using sutures and the wound was closed using clips. On day 6, all animals underwent first MRI (as described in SOP-BI-029) and were randomly divided into groups. […]
Tumor volume was determined based on MRI scans on days 7, 14 and day 21 after injection. […] Tumor volume was measured by manual segmentation of the tumor using ITK-SNAP version 3.6.0-rc1 free software.

Huh-7D12 cells [3] = experiment: Apoptosis induction (FITC Annexin V / 7-AAD flow cytometry)
Method: as §5, §6

Huh-7D12 cells [4] = experiment: Cytotoxicity assay and overall effect (cell counts by flow cytometry); assay type: cell-based, human
Method: (§1) All combination experiments were performed at a frequency of 150 kHz. In these examples, the electric field intensity was 1.0 V/cm for HepG2 and 1.7 V/cm for Huh-7D12 cells. Both cell lines were grown at various sorafenib concentrations (0.1-3.0 μM), and were treated with TTFields for 72 hours. […] The number of cells was determined at the end of treatment and is expressed as a percentage of control cells.
(§2) Sorafenib was obtained from BioVision, USA.
(§3) TTFields (1.0-1.7 V/cm RMS, 150 kHz) were applied for 72 hours to cell lines using the Inovitro™ system. At the end of treatment, inhibition of tumor cell growth was analysed quantitatively based on cell counts performed on EC800 flow cytometer (Sony Biotechnology, Japan).

HepG2 cells [5] = experiment: as above; assay type: cell-based, human
Method: as §1, §2, §3

Huh-7D12 cells [6] = experiment: Clonogenic survival; assay type: cell-based, human
Method: as §2
(§4) At the end of treatment, cells were removed with trypsin, counted, plated in 6-well plates (300 cells/plate) and incubated for 2-3 weeks in CO2 incubator at 37° C. When colonies reached 40-100 cells/colony, they were fixed with 100% methanol, stained with 0.5% crystal violet (Sigma), photographed, and the number of clones was quantified using ImageJ program.

HepG2 cells [7] = experiment: Clonogenic survival; assay type: cell-based, human
Method: as §2, §4

With CNC(=O)c1cc(Oc2ccc(NC(=O)Nc3ccc(Cl)c(C(F)(F)F)c3)cc2)ccn1 [sorafenib, 4-[4-[[4-chloro-3-(trifluoromethyl)phenyl]carbamoylamino]phenoxy]-N-methylpyridine-2-carboxamide] the “apoptotic events, sorafenib alone” value (HepG2 cells [1]; HepG2, 72 hours, sorafenib from no drug to 3 μM) was “increased apoptotic events”, the “additional increase in apoptosis, sorafenib with TTFields” value (HepG2 cells [1]; HepG2, sorafenib + TTFields 150 kHz 1.0 V/cm, 72 hours, range stated for both cell lines) was 10-45% and the “tumor volume (day 14 divided by day 6, MRI), combination of TTFields and sorafenib” value [2] was “synergistic decrease in tumor volume”. The “apoptotic events, sorafenib alone” value (Huh-7D12 cells [3]; Huh-7D12, 72 hours, sorafenib from no drug to 3 μM) was “increased apoptotic events”, the “additional increase in apoptosis, sorafenib with TTFields” value (Huh-7D12 cells [3]; Huh-7D12, sorafenib + TTFields 150 kHz 1.7 V/cm, 72 hours, range stated for both cell lines) was 10-45% and the IC50 (Huh-7D12 cells [4]; Homo sapiens, Huh-7D12, sorafenib alone, 72 hours, read-out: IC50 (number of cells, percentage of control)) was about 1000 nM. The “cytotoxicity of combined treatment of TTFields and sorafenib” value (Huh-7D12 cells [4]; Huh-7D12, sorafenib 0.1-3.0 μM + TTFields 150 kHz 1.7 V/cm, 72 hours, 2-way ANOVA p<0.001) was “enhanced cytotoxicity”, the “overall effect, sorafenib in combination with TTFields vs sorafenib alone” value (Huh-7D12 cells [4]; Huh-7D12, sorafenib 0.1-3.0 μM, TTFields 1.7 V/cm) was “improvement provided by TTFields can be seen even at low levels of sorafenib” and the “cytotoxicity of combined treatment of TTFields and sorafenib” value (HepG2 cells [5]; HepG2, sorafenib 0.1-3.0 μM + TTFields 150 kHz 1.0 V/cm, 72 hours, 2-way ANOVA p<0.001) was “enhanced cytotoxicity”. For the same compound, the “overall effect, sorafenib in combination with TTFields vs sorafenib alone” value (HepG2 cells [5]; HepG2, sorafenib 0.1-3.0 μM, TTFields 1.0 V/cm) was “improvement provided by TTFields can be seen even at low levels of sorafenib”, the IC50 (HepG2 cells [5]; Homo sapiens, HepG2, sorafenib alone, 72 hours, read-out: IC50 (number of cells, percentage of control)) was about 1000 nM and the “clonogenic potential, sorafenib monotherapy” value (Huh-7D12 cells [6]; Huh-7D12, escalating dose of sorafenib alone) was “reduction in the clonogenic potential”. For the same compound, the “clonogenic survival, combined treatment of TTFields and sorafenib” value (Huh-7D12 cells [6]; Huh-7D12, sorafenib + TTFields 150 kHz 1.7 V/cm, 72 hours) was “additional reduction in the clonogenic survival”, the “clonogenic potential, sorafenib monotherapy” value (HepG2 cells [7]; HepG2, escalating dose of sorafenib alone) was “reduction in the clonogenic potential” and the “clonogenic survival, combined treatment of TTFields and sorafenib” value (HepG2 cells [7]; HepG2, sorafenib + TTFields 150 kHz 1.0 V/cm, 72 hours) was “additional reduction in the clonogenic survival”.
